Test results: patent US20220008401A1, “COMPOSITIONS AND METHODS FOR TREATING PULMONARY DISEASE WITH MATRIX METALLOPROTEINASE INHIBITORS” (DARSHA LLC, priority 2019, published 2022)

Columns and labels:
caspase 3 = assay: Western blot for cleaved caspase 3 in lung homogenates of LPS-injured mice; format: in vivo
Protocol: It was also examined if Compound 1 would reduce the levels of apoptosis associated with injury by LPS. Because the time line of apoptosis takes hours, an additional set of mice were injured with LPS (1.5 mg/kg of 1 mg/ml solution in sterile PBS) followed by initiation of treatment with Compound 1 twenty four hours later. The mice received four doses of Compound 1 (one dose every six hours over a total duration of 24 hours in accordance with the treatment schedule described below with reference to FIG. 8B). The mice were sacrificed and their lungs were harvested and assessed for caspase 3 activity by western blot for cleaved caspase 3 and a caspase 3/7 activity assay obtained from ThermoFisher.
FIG. 5A is a representative western blot of lung homogenates that were equalized for protein content (i.e., normalized to actin) and probed for whole and cleaved caspase 3. Each lane represents a lung homogenate sample (40 μg) from an individual mouse. Lane 510 depicts a lung homogenate sample from a control mouse that was not administered LPS or Compound 1. Lanes 520 and 530 depict lung homogenate samples from two mice that were administered LPS but were not treated with Compound 1. […]
FIG. 5B is the relative densitometric quantification of western blots for cleaved caspase 3: whole caspase ratio. […]

[1] = Lung homogenate levels after nebulized Compound 1, Example 5 (mass spectroscopy); format: in vivo, C57/BL6 mice; conditions: for Compound 1 levels in the lung: nebulized, dose groups pooled, lung homogenate, n=6
Protocol: In this test, C57/BL6 mice were divided into three treatment groups, where they received nebulized Compound 1 at high dose (10 mg/kg), medium dose (5 mg/kg) and, low dose (2 mg/kg). Animals were sacrificed at 1, 3 and, 5 hours (n=3 mice per time point) followed by collection of lung homogenates. Homogenates were analyzed by mass spectroscopy to determine Compound 1 levels in the lung.

[2] = Lung and serum levels after nebulized Compound 1 in mice (mass spectroscopy); format: in vivo
Protocol: The compound was administered with a nebulizer of (FIG. 1A). With a 9 cc Medication Nebulizer, a dose of liquid medicine was prepared to a final concentration of 5 ml (3 mg/mL). Treatment was for approximately 20-30 minutes until all liquid was delivered. […] The nebulizer includes a Hospital grade Schuco air compressor 100, Blue top medication nebulizer 110, Plastic collar 120, White elbow hose connector 130, 7′ crush proof 02 tubing to air compressor 140, and MPC Aerosol Pie Cage 150. Technical Specifications of the nebulizing system were as follows:
The pie cage 150 has 12 slots to hold 12 mice.
10 mice were divided into three trial groups:
Low dose group: 3 mice at 2 mg dose (˜5 mg/kg) Medium dose group: 3 mice at 5 mg dose (˜12 mg/kg) High dose group: 4 mice at 10 mg dose (˜35 mg/kg)
The mice were nebulized within their respective dosing group for fifteen minutes (starting with the lowest dosing and moving up to the highest). One mouse was sacrificed per group at 1 hour, 3 hours and 5 hours after the drug delivery (2 mice were sacrificed for the 10 mg dose group).
[…] were collected during sacrifice: upper and lower left lung, right lung, and serum. The order of sample collection was: first blood, then left lung, then right lung. Before removing the right lung, but after removing the left lung, the right lung was lavaged. The lung samples were immediately placed into liquid nitrogen and the blood samples rested for 4 hours at room temperature. After the blood clotted it was centrifuged and the serum was taken into a new tube. Lung and serum samples were then analyzed by mass spectroscopy.

LPS injured mice = assay: Lung wet:dry weight ratio, LPS-injured mice, q6h x 4 doses; format: in vivo; conditions: LPS then Compound 1 every 6 hours for 4 doses; right lung; n=5 (LPS alone 19.44±1.6, PBS 7.5±0.12)
Protocol: Based on the data, the effect of a 6 hour dosing interval (q6h) of Compound 1 on injured mice lung was explored. FIG. 8B schematizes the experimental LPS injury/Compound 1 treatment workflow utilized unless otherwise indicated. Briefly, mice were nasally instilled with LPS (1.5 mg/kg) followed by initiation of Compound 1 treatment 24 hours later (i.e., after a 24 hours rest period). Four doses of Compound 1 (12 mg/kg) were administered via nebulizer every 6 hours to maintain a constant presence of compound in the lung. PBS was administered as a control. Mice were sacrificed 6 hours following the fourth dose. A major feature of ALI/ARDS is non-cardiogenic pulmonary edema resulting in profound hypoxemia. […] We next investigated if attenuation of edema occurred with the alternative treatment schedule where LPS-injured mice were treated with Compound 1 every 6 hours for 4 doses. Total lung edema was determined by assessing lung wet:dry ratios under each experimental condition. Following completion of Compound 1 treatment, the right lung was removed and immediately weighed followed by desiccation for 72 hours and weighed a second time to determine the dry weight. Wet:dry weight ratios were then calculated.

Substance: butanamide, N-hydroxy-2-[[(4-hydroxyphenyl)sulfonyl](3-pyridinylmethyl)amino]-3-methyl, hydrochloride, (2R) [Compound 1]
- caspase 3 activation (cleaved caspase-3, western blot) (caspase 3; LPS 1.5 mg/kg, four inhaled doses, one every six hours, starting 24 hours after LPS, lung homogenate): absent or reduced
- cleaved:whole caspase 3 ratio (densitometry) (caspase 3; LPS-CGS group, four inhaled doses q6h starting 24 hours after LPS, n≥5 (LPS-PBS 2.57±1.15, PBS-PBS 0.25±0.15)): 0.59±0.18 AU
- Compound 1 levels in the lung ([1]; 1 h post-inhalation): 310.7 ± 85.38 ng/g
- Compound 1 levels in the lung ([1]; 3 h post-inhalation): 49.03 ± 15.54 ng/g
- Compound 1 levels in the lung ([1]; 5 h post-inhalation): 24.48 ± 9.96 ng/g
- effect of dose size on Compound 1 concentration in lung ([1]; high (10 mg/kg), medium (5 mg/kg), low (2 mg/kg) nebulized dose, 1, 3, 5 hours): no significant effect
- Mouse Lung MMI 270 ([2]; High Dose (10 mg, ~35 mg/kg, nebulized), 1 hour later, Left Lung Lower Lobe): 1415.95 ng/g
- Mouse Lung MMI 270 ([2]; High Dose (10 mg, ~35 mg/kg, nebulized), 1 hour later, Right Lung Lower Lobe): 598.24 ng/g
- Mouse Serum MMI 270 ([2]; High Dose (10 mg, ~35 mg/kg, nebulized), 1 hour later): 87.99 ng/mL
- Mouse Lung MMI 270 ([2]; High Dose (10 mg, ~35 mg/kg, nebulized), 3 hour later, Left Lung Lower Lobe): 119.51 ng/g
- Mouse Lung MMI 270 ([2]; High Dose (10 mg, ~35 mg/kg, nebulized), 3 hour later, Right Lung Lower Lobe): 50.75 ng/g
- Mouse Serum MMI 270 ([2]; High Dose (10 mg, ~35 mg/kg, nebulized), 3 hour later): 7.93 ng/mL
- Mouse Lung MMI 270 ([2]; High Dose (10 mg, ~35 mg/kg, nebulized), 5 hour later, Left Lung Lower Lobe): 70.67 ng/g
- Mouse Lung MMI 270 ([2]; High Dose (10 mg, ~35 mg/kg, nebulized), 5 hour later, Right Lung Lower Lobe): 23.36 ng/g
- Mouse Serum MMI 270 ([2]; High Dose (10 mg, ~35 mg/kg, nebulized), 5 hour later): 3.79 ng/mL
- Mouse Lung MMI 270 ([2]; Low Dose (2 mg, ~5 mg/kg, nebulized), 1 hour later, Left Lung Lower Lobe): 102.10 ng/g
- Mouse Lung MMI 270 ([2]; Low Dose (2 mg, ~5 mg/kg, nebulized), 1 hour later, Right Lung Lower Lobe): 155.55 ng/g
- Mouse Serum MMI 270 ([2]; Low Dose (2 mg, ~5 mg/kg, nebulized), 1 hour later): 2.97 ng/mL
- Mouse Lung MMI 270 ([2]; Low Dose (2 mg, ~5 mg/kg, nebulized), 3 hour later, Left Lung Lower Lobe): 42.92 ng/g
- Mouse Lung MMI 270 ([2]; Low Dose (2 mg, ~5 mg/kg, nebulized), 3 hour later, Right Lung Lower Lobe): 12.60 ng/g
- Mouse Serum MMI 270 ([2]; Low Dose (2 mg, ~5 mg/kg, nebulized), 3 hour later): <LLOQ
- Mouse Lung MMI 270 ([2]; Low Dose (2 mg, ~5 mg/kg, nebulized), 5 hour later, Left Lung Lower Lobe): 13.21 ng/g
- Mouse Lung MMI 270 ([2]; Low Dose (2 mg, ~5 mg/kg, nebulized), 5 hour later, Right Lung Lower Lobe): <LLOQ
- Mouse Serum MMI 270 ([2]; Low Dose (2 mg, ~5 mg/kg, nebulized), 5 hour later): <LLOQ
- Mouse Lung MMI 270 ([2]; Medium Dose (5 mg, ~12 mg/kg, nebulized), 1 hour later, Left Lung Lower Lobe): 465.18 ng/g
- Mouse Lung MMI 270 ([2]; Medium Dose (5 mg, ~12 mg/kg, nebulized), 1 hour later, Right Lung Lower Lobe): 127.68 ng/g
- Mouse Serum MMI 270 ([2]; Medium Dose (5 mg, ~12 mg/kg, nebulized), 1 hour later): 20.06 ng/mL
- Mouse Lung MMI 270 ([2]; Medium Dose (5 mg, ~12 mg/kg, nebulized), 3 hour later, Left Lung Lower Lobe): 49.60 ng/g
- Mouse Lung MMI 270 ([2]; Medium Dose (5 mg, ~12 mg/kg, nebulized), 3 hour later, Right Lung Lower Lobe): 18.92 ng/g
- Mouse Serum MMI 270 ([2]; Medium Dose (5 mg, ~12 mg/kg, nebulized), 3 hour later): 3.40 ng/mL
- Mouse Lung MMI 270 ([2]; Medium Dose (5 mg, ~12 mg/kg, nebulized), 5 hour later, Left Lung Lower Lobe): 26.04 ng/g
- Mouse Lung MMI 270 ([2]; Medium Dose (5 mg, ~12 mg/kg, nebulized), 5 hour later, Right Lung Lower Lobe): 13.55 ng/g
- Mouse Serum MMI 270 ([2]; Medium Dose (5 mg, ~12 mg/kg, nebulized), 5 hour later): <LLOQ
- wet:dry weight ratio (LPS injured mice): 11.80±0.86
